Test results reported in patent publication US20250108036A1, “COMPOSITIONS FOR REMOVING SENESCENT CELLS AND USES THEREOF” (LIFECEUTIX CO., LTD., priority 2021, published 2025).

How the values were obtained:
[1] = tested on: urea, creatinine, Agtr1a mRNA; test: kidney damage markers in doxorubicin-aged mice (Example 8-9); assay type: in vivo, C57BL6J mice; conditions: LX-112 70 mg/kg oral daily 21 days, DOX without LX = 100%
Protocol: After adapting 8-week-old male C57BL6J mice (purchased from KRIBB Laboratory Animal Resource Center) to the experimental environment for 1 week, doxorubicin, an anticancer drug, was administered intraperitoneally at a concentration of 10 mg/kg, and mice that were induced to age for more than 10 days were assigned to an experimental group and a control group. LX-112 was mixed with 0.5% CMC-Na solution (purchased from Sigma) and administered orally at a concentration of 70 mg/kg daily for 21 days. The control group was administered only the solution in the same volume. After drug administration was completed, the method described in each Example below was performed.
The amounts of urea and creatinine, markers of kidney damage, in serum collected from mice were measured using spectrophotometry in the same manner as in Example 7-8. […] The amount of each factor after aging was induced by treatment with the anticancer drug was calculated as 100% and compared it with the amount of each factor after treatment with LX-112.

[2] = open field test in obesity-aged mice (Example 9-4); assay type: in vivo, C57BL6J mice; conditions: LX-112 70 mg/kg oral daily 21 days, DIO without LX = 100%
Protocol: (§1) 15-week-old male C57BL6J mice (purchased from Jackson Laboratories), whose obesity was induced by a high-fat diet, were adapted to the experimental environment for one week, and then the mice were randomized into an experimental group and a control group. LX-112 was mixed with 0.5% CMC-Na solution (purchased from Sigma) and administered orally at a concentration of 70 mg/kg daily for 21 days. The control group was administered only the solution in the same volume. After drug administration was completed, the method described in each Example below was performed. Mice were sacrificed and the weight of adipose tissue in each area was measured.
Accordingly, the open field test was performed to analyze lethargy due to anxiety and depression caused by obesity in mice using the same method as Example 7-7. […] Table 58 calculates the amounts of activity after aging induced by obesity as 100% and compares it with the amount of activity evaluation after treatment with LX-112.

[3] = frailty tests (open field, wire hanging, grip strength, muscle mass) in naturally aged mice (Example 7-7); assay type: in vivo, C57BL6J mice
Protocol: After 22-month-old female C57BL6J mice (purchased from KRIBB Laboratory Animal Resource Center) were adapted to the experimental environment for one week, the aged mice were randomized into an experimental group and a control group. 8-week-old mice that were not aged were used as controls. LX-112 was mixed with 0.5% CMC-Na solution (purchased from Sigma) and administered orally at a concentration of 70 mg/kg daily for 21 days. The control group was administered only the solution in the same volume. After drug administration was completed, the method described in each Example below was performed.
To analyze aging-related senescence in mice, activity evaluation (open field test), endurance evaluation (wire hanging test), and muscle strength and grip strength test (grip strength test) were performed. Specifically, in the open field test, the mouse was placed in a white square box and the trajectory it moved for a certain period of time was measured. The measurement results were compared by analyzing the ratio of time spent in the central area to the total time. In the wire hanging test, the time the mouse could endure hanging on a wire was measured. In the muscle strength and grip test (grip strength test), the mouse was made to hold the grip strength measuring device (purchased from Jeongdo B&P) with its front paws by holding its tail, then pulled slightly until it missed, and the force applied to the measuring device just before missing was measured. […] Table 33 calculates the amount of each evaluation after induced aging as 100% and compares it with the amount of each evaluation after treatment with LX-112.

[4] = tested on: IL6, activin A; test: serum IL6 and activin A ELISA in obesity-aged mice (Example 9-3); assay type: in vivo, C57BL6J mice; conditions: LX-112 70 mg/kg oral daily 21 days
Protocol: as §1
Using the same method as in Example 7-5, the amount of IL6 and activin A, which are aging-related inflammation secretory factors (SASP), were measured in serum collected from mice using an enzyme-linked immunosorbent assay (ELISA Kit, purchased from R&D Systems).

[5] = tested on: HMGB1; test: HMGB1 ELISA in culture medium of senescent foreskin cells (Example 10, Table 62); assay type: cell-based, human
Protocol: After 6 hours, the amounts of HMGB1 and HMGN1 secreted into the cell culture medium were measured using an enzyme-linked immunosorbent assay (ELISA Kit, purchased from AssayGenie).

[6] = open field test in obese mice given senescent cells killed by test compounds (Example 16, Table 72); assay type: in vivo, C57BL6J mice; conditions: obese mice administered senescent cells whose death was induced by the test compound
Method in brief: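 Doxorubicin-senesced (250 nM, 24 h, then 21 days) mouse preadipocytes killed by test compound were injected subcutaneously (5×10^5 cells) into 8-week-old female C57BL6J mice, followed by intraperitoneal senescent preadipocytes on days 7 and 10 and 8 weeks of high-fat diet. Open-field activity expressed as % of mice without killed-cell administration.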

[7] = LX-112 70 mg/kg oral daily 21 days, aged untreated = 100%

## O=c1c2ccccc2[se]n1CCn1[se]c2ccccc2c1=O [LX-112, 1,2-[bis(1,2-benzisoselenazolone-3(2H)-ketone)]ethane]
[1]
  Agtr1a mRNA (%): 75 (±9) %
[1]; serum
  Creatinine (%): 89 (±4) %
  Urea (%): 91.2 (±1.2) %
[2]
  Open Field Test Time in Center (%): 137.5 (±15) %
[3]; LX-112
  weight of overall fat tissue: increased
[3]; [7]
  Grip Sterenght Test Strength (%): 132 (±11) %
  Open Field Test Time in Center (%): 121 (±9) %
  Wire Hanging Test Time (%): 119 (±10) %
[3]; quadriceps and gastrocnemius, LX-112 70 mg/kg oral daily 21 days
  Muscle Mass (g): 0.7 (±0.1) g
[4]
  Activin A (%): 64.5 (±12.3) %
  IL6 (%): 51.8 (±14.2) %
[5]; 10 μM, culture medium after 6 hours, senescent foreskin cells
  HMGB1 (pg/ml): 454.9 (±22.4) pg/ml
[5]; ABT-263 1 μM or LX-112 10 μM, 6 hours
  HMGB1 secreted in the culture medium from dying senescent cells: little change

## COC(=O)c1ccc([C@H]2c3[nH]c4ccccc4c3C[C@H](C(=O)OC)N2C(=O)CCl)cc1 [LX-405]
[6]
  Open Field Test Time in Center (%): 174.2 (±12.5) %
